ChEMBL document CHEMBL5550129, “Optimization of benzenesulfonyl derivatives as anti-Trypanosomatidae agents: Structural design, synthesis, and pharmacological assessment against Trypanosoma cruzi and Leishmania infantum” (Bioorg Med Chem, 2024)

Tests used:
Trypanosoma cruzi [1] = experiment: Antitrypanosomal activity against Trypanosoma cruzi Tulahuen expressing Escherichia coli beta-galactosidase infected in L929 cells pretreated with parasite for 50 hrs followed by compound addition and measured after 96 hrs; format: functional, organism-based
Leishmania infantum [2] = experiment: Antileishmanial activity against Leishmania infantum MHOM/BR/1974/PP75 expressing red fluorescence protein infected in THP-1 cells pre-infected for 4 hrs followed by compound addition and measured after 72 hrs by microplate reader assay; format: functional, organism-based; details: MHOM/BR/1974/PP75, THP-1
Leishmania braziliensis [3] = experiment: Antileishmanial activity against Leishmania braziliensis MHOM/BR/75/M2904 expressing red fluorescence protein infected in THP-1 cells pre-infected for 4 hrs followed by compound addition and measured after 72 hrs by microplate reader assay; format: functional, organism-based; details: MHOM/BR/75/M2904, THP-1
[4] = Selectivity index, ratio of CC50 for human THP-1 cells to IC50 for Leishmania braziliensis MHOM/BR/75/M2904 expressing red fluorescence protein infected in THP-1 cells; format: toxicity, cell-based; details: read-out: Ratio CC50/IC50
[5] = Cytotoxicity against mouse L929 cells incubated for 96 hrs by Alamar blue assay; format: toxicity, cell-based
[6] = Selectivity index, ratio of CC50 for human THP-1 cells to IC50 for Leishmania infantum MHOM/BR/1974/PP75 expressing red fluorescence protein infected in THP-1 cells; format: toxicity, cell-based; details: read-out: Ratio CC50/IC50
[7] = Cytotoxicity against human THP-1 cells incubated for 72 hrs by Alamar blue assay; format: toxicity, cell-based
[8] = Selectivity index, ratio of CC50 for mouse L929 cells to IC50 for Trypanosoma cruzi Tulahuen expressing Escherichia coli beta-galactosidase infected in L929 cells; format: toxicity; details: read-out: Ratio CC50/IC50
[9] = Cytotoxicity against mouse L929 cells; format: toxicity, cell-based
Trypanosoma cruzi [10] = experiment: Antitrypanosomal activity against Trypanosoma cruzi; format: functional, organism-based
Leishmania infantum [11] = experiment: Antileishmanial activity against Leishmania infantum; format: functional, organism-based
[12] = Selectivity index, ratio of CC50 for human THP-1 cells to IC50 for Leishmania infantum; format: toxicity; details: read-out: Ratio CC50/IC50
[13] = Selectivity index, ratio of CC50 for human THP-1 cells to IC50 for Leishmania braziliensis; format: toxicity; details: read-out: Ratio CC50/IC50
[14] = Selectivity index, ratio of CC50 for mouse L929 cells to IC50 for Trypanosoma cruzi; format: toxicity; details: read-out: Ratio CC50/IC50
[15] = Cytotoxicity against human THP-1 cells; format: toxicity, cell-based
Leishmania braziliensis [16] = experiment: Antileishmanial activity against Leishmania braziliensis; format: functional, organism-based

SMILES	IC50 (Trypanosoma cruzi [1])	IC50 (Leishmania infantum [2])	IC50 (Leishmania braziliensis [3])	CC50 at 96 h [5]	selectivity ratio [6]	CC50 at 72 h [7]	selectivity ratio [8]	other results
COc1ccc(S(=O)(=O)N2CCN(c3ccc(OCCN(C)C)cc3)CC2)cc1	7.1 µM	25.1 µM	70.5 µM	354 µM	16	388 µM	50	selectivity ratio [4]: 6
O=C(c1ccc([N+](=O)[O-])cc1)N1CCN(S(=O)(=O)c2ccc(Cl)cc2)CC1	> 200 µM	48.8 µM			> 20	> 1000 µM		
CN(C)CCOc1ccc(C(=O)N2CCN(S(=O)(=O)c3ccc(Cl)cc3)CC2)cc1	13.8 µM	0.9 µM	1.4 µM	345 µM	> 2460	> 1000 µM	25	selectivity ratio [4]: > 714
CC(=O)Nc1ccc(S(=O)(=O)N2CCN(c3ccc(OCCN(C)C)cc3)CC2)cc1	187 µM	> 100 µM				> 1000 µM		
CN(C)CCOc1ccc(N2CCN(C(=O)c3ccc(Cl)cc3)CC2)cc1	4.3 µM	37.5 µM		339 µM	> 27	> 1000 µM	79	
CN(C)CCOc1cccc(C(=O)N2CCN(S(=O)(=O)c3ccc(Cl)cc3)CC2)c1	137 µM	0.6 µM	4.4 µM					
O=S(=O)(c1ccc(Cl)cc1)N1CCNCC1								CC50 [9]: 227 µM; IC50 (Trypanosoma cruzi [10]): 3.7 µM; IC50 (Leishmania infantum [11]): 5 µM; selectivity ratio [12]: > 250; selectivity ratio [13]: > 250; selectivity ratio [14]: 61; CC50 [15]: 1250 µM; IC50 (Leishmania braziliensis [16]): 4.5 µM
CN(C)CCOc1ccc(N2CCN(S(=O)(=O)c3ccc(N)cc3)CC2)cc1	168 µM	55.2 µM			> 11	> 1000 µM		
CN(C)CCOc1ccc(N2CCN(S(=O)(=O)c3ccc([N+](=O)[O-])cc3)CC2)cc1	1.7 µM	62.9 µM		302 µM	6	343 µM	178	
COc1ccc(OC)c(S(=O)(=O)N2CCN(c3ccc(OCCN(C)C)cc3)CC2)c1	13.4 µM	29.6 µM	29.6 µM	274 µM	5	141 µM	20	selectivity ratio [4]: 5
Nc1ccc(C(=O)N2CCN(S(=O)(=O)c3ccc(Cl)cc3)CC2)cc1	> 200 µM	> 100 µM				> 1000 µM		
O=C(c1ccc(N2CCNCC2)nc1)N1CCN(S(=O)(=O)c2ccc(Cl)cc2)CC1	9.8 µM	> 100 µM		18 µM	< 3	253 µM	2	
CN(C)CCOc1cccc(N2CCN(S(=O)(=O)c3ccc(Cl)cc3)CC2)c1	137 µM	4.6 µM	41.7 µM		37	170 µM		selectivity ratio [4]: 4
O=S(=O)(c1ccc(F)cc1)N1CCN(c2ccccc2)CC1	> 200 µM	> 100 µM						
COc1ccc(Cl)cc1S(=O)(=O)N1CCN(c2ccc(OCCN(C)C)cc2)CC1	12.6 µM	> 100 µM		148 µM	< 1	73.9 µM	12	
NCCOc1ccc(C(=O)N2CCN(S(=O)(=O)c3ccc(Cl)cc3)CC2)cc1	> 200 µM	> 100 µM				911 µM		
Cc1ccc(S(=O)(=O)N2CCN(c3ccc(OCCN(C)C)cc3)CC2)cc1	2.2 µM	> 100 µM		289 µM	< 3	298 µM	136	
N#CCOc1ccc(N2CCN(S(=O)(=O)c3ccc(Cl)cc3)CC2)cc1	7.2 µM	23.3 µM	40.3 µM		2	46.6 µM	71	selectivity ratio [4]: 1
CN(C)CCOc1ccc(N2CCN(S(=O)(=O)c3ccccc3Br)CC2)cc1	3.7 µM	43.3 µM		10 µM	4	161 µM	3	
CN(C)CCOc1ccc(N2CCN(S(=O)(=O)c3ccc(F)cc3)CC2)cc1	6.4 µM	6.1 µM	21 µM	374 µM	> 405	> 1000 µM	58	selectivity ratio [4]: 48
N#Cc1ccc(C(=O)N2CCN(S(=O)(=O)c3ccc(Cl)cc3)CC2)cc1	> 200 µM	36.4 µM				> 1000 µM		
CN(C)CCOc1ccccc1C(=O)N1CCN(S(=O)(=O)c2ccc(Cl)cc2)CC1	> 200 µM	10.3 µM	7.2 µM		> 49	> 500 µM		selectivity ratio [4]: > 69.5
N#CCOc1ccc(C(=O)N2CCN(S(=O)(=O)c3ccc(Cl)cc3)CC2)cc1	108 µM	0.8 µM	0.7 µM		453	371 µM		selectivity ratio [4]: 516
CN(C)CCOc1ccc(N2CCN(S(=O)(=O)c3ccccc3)CC2)cc1	28 µM	> 100 µM		91.2 µM	< 7	650 µM	3	
CN(C)CCNc1ccc(C(=O)N2CCN(S(=O)(=O)c3ccc(Cl)cc3)CC2)cn1	65.9 µM	35.7 µM		395 µM	11	388 µM	6	
CN(C)CCOc1ccc(N2CCN(S(=O)(=O)c3ccc(Br)cc3)CC2)cc1	8.3 µM	> 100 µM		> 427 µM	< 3	283 µM	> 57	
O=C(c1ccc(-n2cnnn2)cc1)N1CCN(S(=O)(=O)c2ccc(Cl)cc2)CC1	145 µM	35.9 µM				> 1000 µM		
